Results as given in patent US5153203A, “Quinolone derivatives and salts thereof, preparation processes thereof, and antibacterial agents containing the same” (Wakunaga Seiyaku Kabushiki Kaisha, priority 1989, dated 1992).
≈ marks a conversion by molar mass, not a printed value.

Assays:
[1] = test system: E. coli NIH JC-2 (IFO 12734); assay: Minimum inhibitory concentration (MIC), standard method of the Japan Society of Chemotherapy; format: cell-based; details: Escherichia coli, IFO12734
Description: (§1) With respect to certain representative compounds among the compounds [I] of the present invention, their minimum inhibitory concentrations (MIC; μg/ml) were measured in accordance with the standard method established by the Japan Society of Chemotherapy [CHEMOTHERAPY, 29(1), 76-79 (1981]. The results are summarized in Table 1, in which the compound numbers are as shown in examples.

P. aeruginosa (IFO 3445) = assay: as above; format: cell-based; details: Pseudomonas aeruginosa, IFO3445
Description: as §1

[2] = test system: S. aureus 209 P (IFO 12732); assay: as above; format: cell-based; details: Staphylococcus aureus, IFO12732
Description: as §1

[3] = Partition coefficient, phosphate buffer/n-octanol; format: physicochemical; details: 50 mM phosphate buffer (pH 7.4, μ=0.15)/n-octanol
Description: Following the method proposed by Akira Tsuji et al. in Antimicrob. Agents Chemother., 32. 190-194 (1988), 50 mM phosphate buffer (pH 7.4, μ=0.15)/n-octanol partition coefficients were measured.

Compound	MIC [1]	MIC (P. aeruginosa (IFO 3445))	MIC [2]	logD [3]
Cl.O=C(O)c1cn(C2CC2)c2cc(OC3CCNC3)c(F)cc2c1=O (centres unmarked) [Compound 1, 7-(3-Pyrrolidinyloxy)-1-cyclopropyl-6-fluoro-1,4-dihydro-4-oxoquinoline-3-carboxylic acid hydrochloride]	0.39 µg/mL	3.13 µg/mL	3.13 µg/mL	–
Cl.O=C(O)c1cn(C2CC2)c2c(F)c(OC3CCNC3)c(F)cc2c1=O (centres unmarked) [Compound 2, 7-(3-Pyrrolidinyloxy)-1-cyclopropyl-6,8-difluoro-1,4-dihydro-4-oxoquinoline-3-carboxylic acid hydrochloride]	0.2 µg/mL	0.78 µg/mL	0.78 µg/mL	–
Cl.Nc1c(F)c(OC2CCNC2)c(F)c2c1c(=O)c(C(=O)O)cn2C1CC1 (centres unmarked) [Compound 8, 7-(3-Pyrrolidinyloxy)-1-cyclopropyl-5-amino-6,8-difluoro-1,4-dihydro-4-oxoquinoline-3-carboxylic acid hydrochloride]	0.1 µg/mL	0.78 µg/mL	0.39 µg/mL	–
CC1COc2c(OC3CCNC3)c(F)cc3c(=O)c(C(=O)O)cn1c23.Cl (centres unmarked) [Compound 9, 10-(3-Pyrrolidinyloxy)-9-fluoro-2,3-dihydro-3-methyl-7-oxo-7H-pyrido[1,2,3-de][1,4]-benzoxazine-6-carboxylic acid hydrochloride]	1.25 µg/mL	25 µg/mL	1.56 µg/mL	–
Cl.O=C(O)c1cn(-c2ccc(F)cc2F)c2nc(OC3CCNC3)c(F)cc2c1=O (centres unmarked) [Compound 10, 7-(3-Pyrrolidinyloxy)-1-(2,4-difluorophenyl)-6-fluoro-1,4-dihydro-4-oxo-1,8-naphthyridine-3-carboxylic acid hydrochloride]	0.78 µg/mL	3.13 µg/mL	1.56 µg/mL	–
CCn1cc(C(=O)O)c(=O)c2cc(F)c(OC3CCN(C)CC3)cc21 [Compound 11, 7-(1-Methyl-4-piperidyloxy)-1-ethyl-6-fluoro-1,4-dihydro-4-oxoquinoline-3-carboxylic acid]	0.78 µg/mL (≈ 2.24 µM)	12.5 µg/mL (≈ 35.9 µM)	1.56 µg/mL (≈ 4.48 µM)	–
CC1COc2c(OC3CCN(C)CC3)c(F)cc3c(=O)c(C(=O)O)cn1c23 (centres unmarked) [Compound 12, 10-(1-Methyl-4-piperidyloxy)-9-fluoro-2,3-dihydro-3-methyl-7-oxo-7H-pyrido[1,2,3-de][1,4]-benzoxazine-6-carboxylic acid]	1.56 µg/mL (≈ 4.14 µM)	12.5 µg/mL (≈ 33.2 µM)	1.56 µg/mL (≈ 4.14 µM)	–
Nc1c(F)c(OC2CCNCC2)c(F)c2c1c(=O)c(C(=O)O)cn2C1CC1 [Compound 19]	–	–	–	-0.693
O=C(O)c1cn(C2CC2)c2cc(N3CCOC3)c(F)cc2c1=O [Compound 57, 1-Cyclopropyl-6-fluoro-7-(3-oxazolidinyl)-1,4-dihydro-4-oxoquinoline-3-carboxylic acid]	0.2 µg/mL (≈ 0.628 µM)	0.78 µg/mL (≈ 2.45 µM)	0.1 µg/mL (≈ 0.314 µM)	–
CCn1cc(C(=O)O)c(=O)c2cc(F)c(N3CCOC3)cc21 [Compound 58]	0.78 µg/mL (≈ 2.55 µM)	6.25 µg/mL (≈ 20.4 µM)	0.39 µg/mL (≈ 1.27 µM)	–
CC1CN(c2cc3c(cc2F)c(=O)c(C(=O)O)cn3C2CC2)CO1 (centres unmarked) [Compound 59]	0.2 µg/mL (≈ 0.602 µM)	0.78 µg/mL (≈ 2.35 µM)	0.1 µg/mL (≈ 0.301 µM)	–
CN(C)CC1CN(c2cc3c(cc2F)c(=O)c(C(=O)O)cn3C2CC2)CO1 (centres unmarked) [Compound 60]	0.2 µg/mL (≈ 0.533 µM)	1.56 µg/mL (≈ 4.16 µM)	0.2 µg/mL (≈ 0.533 µM)	–
CCOC(=O)c1cn(C2CC2)c2c(F)c(N3COC(CN(C)C)C3)c(F)cc2c1=O (centres unmarked) [Compound 64]	–	–	–	-0.316
O=C(O)c1cn(C2CC2)c2c(F)c(N3CCOC3)c(F)cc2c1=O [Compound 66, 1-Cyclopropyl-6,8-difluoro-7-(3-oxazolidinyl)-1,4-dihydro-4-oxoquinoline-3-carboxylic acid]	0.2 µg/mL (≈ 0.595 µM)	1.56 µg/mL (≈ 4.64 µM)	0.2 µg/mL (≈ 0.595 µM)	–
CC1CN(c2c(F)cc3c(=O)c(C(=O)O)cn(C4CC4)c3c2F)CO1 (centres unmarked) [Compound 67]	0.2 µg/mL (≈ 0.571 µM)	0.78 µg/mL (≈ 2.23 µM)	0.1 µg/mL (≈ 0.285 µM)	–
CC1COCN1c1c(F)cc2c(=O)c(C(=O)O)cn(C3CC3)c2c1F (centres unmarked) [Compound 68]	0.78 µg/mL (≈ 2.23 µM)	3.13 µg/mL (≈ 8.93 µM)	0.2 µg/mL (≈ 0.571 µM)	–
CN(C)CC1CN(c2c(F)cc3c(=O)c(C(=O)O)cn(C4CC4)c3c2F)CO1 (centres unmarked) [Compound 69]	0.2 µg/mL (≈ 0.508 µM)	1.56 µg/mL (≈ 3.97 µM)	0.2 µg/mL (≈ 0.508 µM)	–
O=C(O)c1cn(C2CC2)c2c(F)c(N3CCOC3)c(F)c(F)c2c1=O [Compound 72, 1-Cyclopropyl-5,6,8-trifluoro-7-(3-oxazolidinyl)-1,4-dihydro-4-oxoquinoline-3-carboxylic acid]	0.39 µg/mL (≈ 1.1 µM)	3.13 µg/mL (≈ 8.83 µM)	0.2 µg/mL (≈ 0.565 µM)	–
O=C(O)c1cn(C2CC2)c2c(F)c(N3COC(CO)C3)c(F)cc2c1=O (centres unmarked) [Compound 74, 1-Cyclopropyl-6,8-difluoro-7-(5-hydroxymethyl-3-oxazolidinyl)-1,4-dihydro-4-oxoquinoline-3-carboxylic acid]	0.1 µg/mL (≈ 0.273 µM)	0.78 µg/mL (≈ 2.13 µM)	0.1 µg/mL (≈ 0.273 µM)	–
O=C(O)c1cn(C2CC2)c2c(F)c(N3CCCOC3)c(F)cc2c1=O [Compound 76, Cyclopropyl-6,8-difluoro-7-(tetrahydro-1,3-oxazin)-3-yl-1,4-dihydro-4-oxoquinoline-3-carboxylic acid]	0.39 µg/mL (≈ 1.11 µM)	3.13 µg/mL (≈ 8.93 µM)	0.39 µg/mL (≈ 1.11 µM)	–
